Measurements published in patent publication US20150031102A1, “METHODS AND COMPOSITIONS FOR ENHANCED PRODUCTION OF BUTANOL BY CLOSTRIDIA” (Butrolix LLC, priority 2012, published 2015).

Test system: C. acetobutylicum
Test: Continuous culture, 2.5 L, dilution rate 0.01 per hour, 20 days (butanol, residual glucose, optical density, pH, yield, productivity)
Assay type: cell-based, Clostridium acetobutylicum
Conditions: for Productivity / Yield / Butanol: 50 nM peptide, Table 54; for Butanol: average ± SD of triplicate samples
Method: Lastly, 2.5 L continuous culture studies were conducted using the optimum peptide treatment level that was determined by the sequential batch transfer experiments. An untreated and a peptide-treated culture were grown in parallel, identical vessels with identical dilution rates for 20 days. The continuous cultures were initiated by inoculating 2.25 L of sterile medium in each culture vessel using 250 mL of peptide-treated and untreated batch cultures that had been grown for 24 hours. The batch cultures used as inoculum were the third of sequential batch transfer cultures, which made inoculation of the continuous cultures the fourth sequential transfer. After inoculation, the continuous cultures were grown for 24 hours before beginning to feed fresh medium at a rate of 0.01 volumes per hour. Triplicate samples were taken from each continuous culture every 24 hours. Optical density of the replicates was measured and culture supernatants were recovered following centrifugation and analyzed later for butanol and residual glucose concentrations. The analyses were used to calculate yield and productivity of the cultures.
Clostridium acetobutylicum strain ATCC 824 was used in all experiments and the growth medium used for sequential batch transfer, time course, and continuous culture experiments contained yeast extract, casamino acids, L-cysteine, L-asparagine, phosphate buffer, trace minerals, and 6% glucose. What are believed to be quorum-sensing peptides that were used in the experiments were chemically synthesized peptides SEQ ID NO: 143 (amino acid sequence: SYPGWSW) and SEQ ID NO: 144 (amino acid sequence: ILILISG). Routine growth of the bacteria as well as the sequential batch and time course experiments were conducted in a Form a Scientific Model 1029 anaerobic gas chamber at 32° C. Continuous cultures were performed at 32° C. using duplicate New Brunswick Scientific BioFlo 3000 apparati with a dilution rate of 0.01 volume per hour, 75 rpm agitation, and nitrogen gas sparging. Optical density of culture samples was measured at 600 nm in a Beckman DU 600 series spectrophotometer and glucose was analyzed using a YSI Model 2700 Select Biochemistry Analyzer with internal glucose calibration. Butanol concentrations were determined by measuring experimental and standard samples using a Varian Saturn 3 Gas Chromatograph/Mass Spectrometer and calculating butanol concentrations using standard curves.
Data from continuous cultures using a 6% glucose medium in vessels with a working volume of 2.5 L run at a dilution rate of 0.01 per hour. Two vessels were run in parallel, one of which was treated with 50 nM of peptide SEQ ID NO: 143 and the other was untreated. The vessels were sparged continuously with nitrogen gas to maintain anaerobic conditions and were agitated at 75 rpm. On Day 0, the vessels were inoculated with a 1/10 volume (250 mL) of overnight cultures that were either treated with peptide or untreated, and that were the third transfer of the cultures, which made inoculation of the continuous cultures the fourth transfer. Triplicate samples were collected aseptically from each vessel immediately after inoculation and every 24 hours thereafter. The cultures were allowed to grow for 24 hours prior to beginning to feed fresh medium, and were maintained for 20 days each, without pH control. The optical density of each sample was measured immediately at 600 nm, the samples were centrifuged to remove cells, and the cell-free supernatants were frozen for later analysis. A representative experiment is shown in FIG. 19 and Tables 34 and 35.
Using the optimum peptide treatment level that was determined by the sequential batch transfer experiments, 2.5 L continuous culture studies were conducted. An untreated and a peptide-treated culture were grown in parallel, identical vessels using the same dilution rates for 20 days for each of the peptides BP110517 and BP1106213. […]

[1] = 24 hour period preceding day 10
[2] = 24 hour period preceding day 11
[3] = 24 hour period preceding day 12
[4] = 24 hour period preceding day 13
[5] = 24 hour period preceding day 14
[6] = 24 hour period preceding day 15
[7] = 24 hour period preceding day 16
[8] = 24 hour period preceding day 17
[9] = 24 hour period preceding day 18
[10] = 24 hour period preceding day 19
[11] = 24 hour period preceding day 20

With “ILILISG (Derived from Clostridium acetobutylicum SEQ ID NO: 110) [peptide SEQ ID NO: 144]” the “Butanol content compared with the untreated culture” value (50 nM BP1106213, starting at day 2 and throughout the rest of the study) was “untreated culture remained significantly higher”, the pH (50 nM BP1106213 and its untreated control, after the first 4 days, for the duration of both cultures) was ~4.2 and the “Optical density (600 nm)” value (50 nM BP1106213 and its untreated control, almost the complete duration of the cultures) was “above 2.0”. For the same substance, the Glucose consumption (50 nM BP1106213 and untreated, day three through the end of the study) was “entirely consumed”, the Productivity (24 hour period preceding day 1) was 0.53 g Butanol/L-h and the Yield (24 hour period preceding day 1) was 0.19 g Butanol/g Glucose. It also gave a Productivity (24 hour period preceding day 2) of −0.17 g Butanol/L-h, a Yield (24 hour period preceding day 2) of −0.28 g Butanol/g Glucose and a Productivity (24 hour period preceding day 3) of 0.07 g Butanol/L-h. It also gave a Yield (24 hour period preceding day 3) of 0.11 g Butanol/g Glucose, a Productivity (24 hour period preceding day 4) of 0.29 g Butanol/L-h and a Yield (24 hour period preceding day 4) of 0.46 g Butanol/g Glucose. It also gave a Productivity (24 hour period preceding day 5) of 0.24 g Butanol/L-h, a Yield (24 hour period preceding day 5) of 0.39 g Butanol/g Glucose and a Productivity (24 hour period preceding day 6) of 0.07 g Butanol/L-h. The Yield (24 hour period preceding day 6) was 0.11 g Butanol/g Glucose, the Productivity (24 hour period preceding day 7) was 0.14 g Butanol/L-h and the Yield (24 hour period preceding day 7) was 0.23 g Butanol/g Glucose. For the same substance, the Productivity (24 hour period preceding day 8) was 0.06 g Butanol/L-h, the Yield (24 hour period preceding day 8) was 0.10 g Butanol/g Glucose and the Productivity (24 hour period preceding day 9) was 0.07 g Butanol/L-h. The Yield (24 hour period preceding day 9) was 0.11 g Butanol/g Glucose, the Productivity [1] was 0.00 g Butanol/L-h and the Yield [1] was 0.01 g Butanol/g Glucose. For the same substance, the Productivity [2] was 0.20 g Butanol/L-h, the Yield [2] was 0.33 g Butanol/g Glucose and the Productivity [3] was 0.02 g Butanol/L-h. For the same substance, the Yield [3] was 0.04 g Butanol/g Glucose, the Productivity [4] was −0.11 g Butanol/L-h and the Yield [4] was −0.18 g Butanol/g Glucose. It also gave a Productivity [5] of 0.00 g Butanol/L-h, a Yield [5] of 0.00 g Butanol/g Glucose and a Productivity [6] of 0.03 g Butanol/L-h. The Yield [6] was 0.05 g Butanol/g Glucose, the Productivity [7] was 0.11 g Butanol/L-h and the Yield [7] was 0.17 g Butanol/g Glucose. It also gave a Productivity [8] of −0.01 g Butanol/L-h, a Yield [8] of −0.02 g Butanol/g Glucose and a Productivity [9] of 0.01 g Butanol/L-h. It also gave a Yield [9] of 0.01 g Butanol/g Glucose, a Productivity [10] of 0.06 g Butanol/L-h and a Yield [10] of 0.09 g Butanol/g Glucose. The Productivity [11] was 0.01 g Butanol/L-h, the Yield [11] was 0.01 g Butanol/g Glucose and the Butanol (day 0) was 0.6 ± 0.0 g/L. It also gave a Butanol (day 1) of 7.0 ± 0.5 g/L, a Butanol (day 2) of 8.2 ± 0.9 g/L and a Butanol (day 3) of 6.9 ± 0.6 g/L. For the same substance, the Butanol (day 4) was 5.0 ± 0.2 g/L, the Butanol (day 5) was 4.6 ± 0.3 g/L and the Butanol (day 6) was 5.2 ± 0.2 g/L. The Butanol (day 7) was 4.9 ± 0.2 g/L, the Butanol (day 8) was 5.6 ± 0.0 g/L and the Butanol (day 9) was 5.1 ± 0.1 g/L. The Butanol (day 10) was 5.1 ± 0.0 g/L, the Butanol (day 11) was 5.2 ± 0.2 g/L and the Butanol (day 12) was 5.1 ± 0.1 g/L. It also gave a Butanol (day 13) of 5.0 ± 0.1 g/L, a Butanol (day 14) of 5.4 ± 0.1 g/L and a Butanol (day 15) of 5.5 ± 0.1 g/L. The Butanol (day 16) was 5.5 ± 0.1 g/L, the Butanol (day 17) was 5.3 ± 0.1 g/L and the Butanol (day 18) was 5.1 ± 0.2 g/L. The Butanol (day 19) was 4.3 ± 0.2 g/L, the Butanol (day 20) was 2.9 ± 0.1 g/L and the “Effect on differentiation and butanol production” value (continuous cultures) was “strong inhibitor of differentiation and butanol production”.
